Data: patent US6958162B2, “Herbal composition for treating allergic disorders and method for making the same” (Industrial Technology Research Institute, priority 2003, dated 2005)

Experiments:
[1] = test system: IL-4 released from EL-4 cells; assay: Measurement of IL-4 released from stimulated EL-4 cells (ELISA); format: cell-based, mouse; settings: FIG. 3b, 3c
Procedure: During the day of experiment, the herbal drug was diluted in the cell culture medium to the end point (0.5 μg/ml, 5 μg/ml, or as appropriate). The ability of each herbal composition and its mixtures to affect the production of IL-4, TNF-alpha, and cLT was measured.
The mouse thymoma cell lines, EL-4 were incubated with each composition or mixture for 2 hours before it was stimulated by 100 ng/ml of A23187 and PMA. Samples of tissue culture medium were collected at the end of 24 hours incubation and stored at −70 degrees C. prior to assay.
Cytokine measurements were carried out using the commercially available ELISA assay kit (R&D Systems, Minneapolis, Minn.) in accordance with the supplier's protocols. In brief, 100 μl of the assay buffer supplied was added to each of the wells of a micro-titer plate containing pre-bound anti-cytokine antibody, followed by 100 μl of a standard or sample solution, diluted appropriately for the concentration range measured. All incubations were carried out at 37 degrees C. After two hours incubation, the plates were washed four times with a wash buffer, and the second antibody, Detection Antibody, was added with 1:200 in Reagent Diluent to each well. The plates were sealed and incubated for 2 hours. […] Optical sensitivity was determined at 450 nm using a Molecular Devices of micro-titer plate reader.

[2] = test system: inflammatory cells in the BAL fluids; assay: Der p 2 induced allergic airway inflammation in mice: cell counts in BAL fluid; format: in vivo, Balb/c mice; settings: DEX 1 μg/mouse/day, mean ± SEM
Procedure: (§1) Male Balb/c mice were obtained from the National Laboratory Breeding Research Center in Taiwan and were raised in a specific pathogen-free environment. These mice used were between 6 and 8 weeks of age. Groups of six mice were caged separately according to their treatments. Recombinant Dermatophoides pteronyssinus group 2 (Der p 2) was prepared from Dr. Tsai's lab and test drugs, Traditional Chinese Medicine A (TCM-A, or 1217A in FIGS. 7, 8, 9, and 10) and Traditional Chinese Medicine B (TCM-B, or 1217B in FIGS. 7, 8, 9, and 10) were prepared from the Biomedical Engineering Center Industrial Technology Research Institute, Hsinchu, Taiwan.
Mice were immunized by intraperitoneal (i.p.) injection of 1 μg/0.1 ml Der p 2 emulsified in 4 μg/0.062 ml aluminum hydroxide Al(OH)3 (Whitehall Lab Ltd, Punchbowel, Australia) on day 0 and day 7. After immunization, mice were fed with TCM for 3 weeks. Mice of different groups were fed with Dexamethasome (1 μg/mouse/day), TCM-A (20 mg/mouse/day), TCM-B (20 mg/mouse/day) or normal saline 500 μl/mouse/day. On days 28 and 35, mice were lightly anesthetized with an i.p. injection of 60 mg/kg of sodium pentobarbital (Sigma Chemical Co., St. Louis, Mo., USA) and intratracheally (i.t.) inoculated with 1 μg/50 μl of Der p 2. Twenty-four hours after the second i.t. inoculation, mice were sacrificed after pulmonary function measurement.
After pulmonary function measurement, bronchoalveolar lavage (BAL) was performed with the following procedure. Two separate injections of 1 ml sterile endotoxin-free saline were given into the lung via the trachea of each mouse. Approximately 1.8 ml of the bronchoalveolar lavage (BAL) fluid was recovered constantly. The BAL fluids were aspirated and stored at −70° C. until assay. After total leukocyte counting, a cytospin preparation of […] BAL fluid was stained with Liu stain (Tonyar Diagnostic Inc, Taipei County, Taiwan) and differential counts were performed on 200 cells. […] Blood samples were obtained via the orbital sinus and sera were collected and stored at −70° C. until assay.

pulmonary function = assay: Pulmonary function determination (barometric plethysmograph, methacholine) in Der p 2 allergic mice; format: in vivo, Balb/c mice; settings: DEX 1 μg/mouse/day, TCM 20 mg/mouse/day; result in words
Procedure: as §1, with “Taiwan. […]” for “Taiwan.”
Each mouse was placed inside a barometric plethysmograph (Buxco Electronics, Troy, N.Y.). […] The pressure signal was amplified, digitized via an A/D convert card, and sent to a computer with a BioSystem XA program (Buxco Electronics, Troy, N.Y.), which sampled and calculated desired respiratory parameters. […]
An aerosol was generated by placing a 5 ml saline or methacholine (1.56 to 50.00 mg/ml) solution in the cup of an ultrasonic nebulizer (DeVilbiss, Somerset, Pa.) and it was delivered via a connecting tube and a three-way connector to the animal chamber of the plethysmograph. […] At first, each mouse inhaled the saline aerosol for 3 mins and then the respiratory parameters were measured for 3 mins. […]

Compound	effect on IL-4 released from EL-4 cells (excipients and powder with excipients) [1]	Differential Counts, Eos ([2]; BAL fluid, TCM 20 mg/mouse/day)	Differential Counts, Lym ([2]; BAL fluid, TCM 20 mg/mouse/day)	Differential Counts, Macro ([2]; BAL fluid, TCM 20 mg/mouse/day)	Differential Counts, Neu ([2]; BAL fluid, TCM 20 mg/mouse/day)	Total cell NO in BAL fluid ([2]; fed 3 weeks, TCM-A or TCM-B 20 mg/mouse/day)	pulmonary function of allergic animals (methacholine from low dose to high dose) (pulmonary function)
O=P([O-])([O-])[O-].O=P([O-])([O-])[O-].[Ca+2].[Ca+2].[Ca+2] [Ca3(PO4)2]	do not have any effect	–	–	–	–	–	–
C[C@@H]1C[C@H]2[C@@H]3CCC4=CC(=O)C=C[C@]4(C)[C@@]3(F)[C@@H](O)C[C@]2(C)[C@@]1(O)C(=O)CO [DEX, Dexamethasone]	–	3.2 ± 0.4 ×10^4/ml	9.4 ± 1.5 ×10^4/ml	29.2 ± 4.4 ×10^4/ml	6.6 ± 1.0 ×10^4/ml	46.4 ± 2.2 ×10^4/ml	can improve the pulmonary function
